Reference: patent US11925672B2, “Peptide having antioxidant activity and composition containing same” (SEMPIO FOODS COMPANY, priority 2018, dated 2024)
Entries after “also recorded” stand apart in the source; their conditions may differ. Numbered stars: 1 amine (or outer) side, 2 acyl side, 3 side chain; on linkers, the order of the positions; unused ones are H or OH. Square brackets hold non-standard residues; d marks the D form. Ends that are not written are not given here. γGlu = O=C(O)[C@H](CCC(=O)[*:2])N[*:1]

Legend:
[1] = DPPH-scavenging ability assay; type: biochemical; conditions: peptides; vs GSH
Experimental: 2. DPPH (2,2-Diphenyl-1-Picryl-Hydrazyl-Hydrate) Assay Method
The antioxidant activity due to the DPPH-scavenging ability of yeast hydrolyzates was measured using the methods of Choi Chang-seop et al. (2003) and Shekhar et al. (2014). 20 μl of a sample (1 to 5000 μg/ml) dissolved in distilled water was added to 180 μl of an ethanol solution containing DPPH (0.111 mM). The resulting mixture was allowed to react at 25° C. for 30 minutes, and absorbance was measured at 517 nm. Ascorbic acid was used to create the standard curve, and DPPH-scavenging ability (%) was calculated and expressed by the equation of [(absorbance upon no addition of sample−absorbance of sample)/absorbance upon no addition of sample]×100.
(§1) The DPPH-scavenging ability and reducing power of the fractions of respective yeast hydrolyzates (Preparation Examples 1 to 4) were measured using the same method of measuring DPPH-scavenging ability and reducing power as in Experimental Example 1.

SOD2 mRNA = SOD2 mRNA expression level by real-time PCR in Tert-BHP-treated HEK293 cells; type: cell-based; conditions: Tert-BHP 300 μM, peptide 500 μM, 18 hours; for effect on SOD2 mRNA expression: FIG. 6; for SOD2 mRNA expression compared to positive control GSH: vs GSH
Experimental: The expression of SOD2 mRNA as another antioxidant factor was determined. The cell line culture, RNA extraction, cDNA synthesis and PCR experiments were performed in the same manner as in Experimental Example 5 above. A detailed description thereof is given below.
An HEK293 cell (kidney cell) line was seeded at a density of 6.6×10^5/well in DMEM (Dulbecco's Modified Eagle's Medium) medium on a 6-well plate and cultured at 37° C. and 5% CO2 for 24 hours. The next day, the medium was exchanged with serum and amino-acid-free media, and then the cells were further cultured for 20 hours or longer. The cells were treated with Tert-BHP (300 μM) and 500 μM 100 types of peptides, and then cultured for 18 hours.
RNA was extracted from the cells treated with 100 types of peptides in (1) using TRIzol (Thermo Fisher Scientific). A GoScript™ Reverse Transcription System (Promega, Wisconsin, USA) was used to synthesize cDNA from the RNA. The cDNA was synthesized by performing annealing with 1 μg RNA, 0.5 μg of an oligo dt primer, 0.5 μg of a random primer, and RT-PCR pre-mixture at 25° C. for 5 minutes, extension at 42° C. for 60 minutes, and inactivation at 70° C. for 15 minutes.
(§2) PCR was performed using Maxime™ PCR PreMix (i-StarTaq) (Intron Biotechnology, Korea). Real-time PCR was performed using SsoAdvanced™ Universal SYBR® Green Supermix (Bio-Rad, USA). 100 ng of cDNA, 2 μM (pmol/μl) primers, 10 μl of 2X SsoAdvanced™ Universal SYBR® Green Supermix and DW were added to the PCR plate well. Then, the temperature was cyclically adjusted to 95° C. for 3 minutes, 95° C. for 10 seconds and 58° C. for 40 seconds for a total of 40 cycles. A PCR reaction was performed using the CFX96 Touch™ Real-Time PCR Detection System (Bio-Rad, California, USA), and fluorescence intensity was measured at the end of each cycle.

[2] = Reducing power assay (method of Oyaizu); conditions: peptides; vs GSH
Experimental: 3. Reducing Power Assay Method
The reducing power of yeast hydrolysates was measured using the method of Oyaizu (1986). Specifically, a sample (1-5000 μg/ml, 60 μl) dissolved in distilled water was mixed with phosphate buffer (150 μl, 0.2M, pH 6.6) and potassium ferricyanide (K 3 Fe(CN) 6, 150 μl, 1%), followed by reacting at 50° C. for 20 minutes. Further, 150 μl of trichloroacetic acid (10%) was added thereto, followed by centrifugation at 2,000 g for 10 minutes. 150 μl of the supernatant containing the sample was added to 150 μl of DW and FeCl3 (30 μl, 0.1%). The resulting mixture was allowed to react at 25° C. for 10 minutes, and absorbance was measured at 700 nm.
as §1

Nrf2 mRNA = Nrf2 mRNA expression level by real-time PCR in Tert-BHP-treated HEK293 cells; type: cell-based; conditions: Tert-BHP 300 μM, peptide 500 μM, 18 hours; for effect on expression of Nrf2 mRNA: FIGS. 5A to 5C; for Nrf2 mRNA expression compared to positive control GSH: vs GSH
Experimental: In the present invention, the antioxidant activity was compared between the 100 types of peptides, and the change in Nrf2 mRNA expression was measured through PCR in order to select the final peptide.
An HEK293 cell (kidney cell) line was seeded at a density of 6.6×10^5/well in DMEM (Dulbecco's Modified Eagle's Medium) medium on a 6-well plate and cultured at 37° C. under 5% CO2 for 24 hours. The next day, the medium was exchanged with serum and amino-acid-free media, and then the cells were further cultured for 20 hours or longer. The cells were treated with Tert-BHP (300 μM) and 500 μM 100 types of peptides, and then cultured for 18 hours.
RNA was extracted from the cells treated with 100 types of peptides in (1) using TRIzol (Thermo Fisher Scientific). A GoScript™ Reverse Transcription System (Promega, Wisconsin, USA) was used to synthesize cDNA from the RNA. The cDNA was synthesized by performing annealing using 1 μg of RNA, 0.5 μg of an oligo dt primer, 0.5 μg of a random primer and RT-PCR pre-mixture at 25° C. for 5 minutes, extension at 42° C. for 60 minutes, and inactivation at 70° C. for 15 minutes.
as §2, with “using a” for “using the”

Substance	DPPH-scavenging ability of peptide compared to GSH [1]	effect on SOD2 mRNA expression (SOD2 mRNA)	SOD2 mRNA expression compared to positive control GSH (SOD2 mRNA)	reducing power of peptide compared to GSH [2]	effect on expression of Nrf2 mRNA (Nrf2 mRNA)	Nrf2 mRNA expression compared to positive control GSH (Nrf2 mRNA)
γ-GLU-GLN-GLU ([γGlu]-Gln-Glu)	comparable or superior to GSH	increased SOD2 mRNA expression	remarkably excellent; also recorded: statistically significant activity	comparable or superior to GSH	improve the expression of Nrf2 mRNA	remarkably excellent effect; also recorded: statistically significant activity; also recorded: comparable or superior to GSH
γ-GLU-THR-GLY ([γGlu]-Thr-Gly; also: gamma-glutamyl isopeptide bond (Glu side chain to Thr))	comparable or superior to GSH	increased SOD2 mRNA expression	remarkably excellent; also recorded: statistically significant activity	comparable or superior to GSH	improve the expression of Nrf2 mRNA	remarkably excellent effect; also recorded: statistically significant activity; also recorded: comparable or superior to GSH
γ-GLU-VAL-CYS ([γGlu]-Val-Cys; also: gamma-glutamyl isopeptide bond (Glu side chain to Val))	comparable or superior to GSH	increased SOD2 mRNA expression	remarkably excellent; also recorded: statistically significant activity	comparable or superior to GSH	improve the expression of Nrf2 mRNA	remarkably excellent effect; also recorded: statistically significant activity; also recorded: comparable or superior to GSH
γ-GLU-VAL-PHE ([γGlu]-Val-Phe; also: gamma-glutamyl isopeptide bond (Glu side chain to Val))		increased SOD2 mRNA expression	remarkably excellent; also recorded: statistically significant activity		improve the expression of Nrf2 mRNA	remarkably excellent effect; also recorded: statistically significant activity
γ-GLU-VAL-PRO ([γGlu]-Val-Pro; also: gamma-glutamyl isopeptide bond (Glu side chain to Val))		increased SOD2 mRNA expression			improve the expression of Nrf2 mRNA	
γ-GLU-VAL-VAL ([γGlu]-Val-Val; also: gamma-glutamyl isopeptide bond (Glu side chain to Val))		increased SOD2 mRNA expression			improve the expression of Nrf2 mRNA	
